US12492188B2, “1H-benzo[D]imidazole derivatives as TLR9 inhibitors for the treatment of fibrosis” (BRISTOL-MYERS SQUIBB COMPANY, priority 2020, dated 2025)
pIC50: −log10 of the molar value. Read-outs that look alike come from different tables or passages of the source.

Target: T1, human TLR9 (Homo sapiens, UniProt Q9NR96)
T1 construct: host or cells: HEK-Blue cells (HEK293-derived reporter line)
T1 sequence (Q9NR96 26-1032): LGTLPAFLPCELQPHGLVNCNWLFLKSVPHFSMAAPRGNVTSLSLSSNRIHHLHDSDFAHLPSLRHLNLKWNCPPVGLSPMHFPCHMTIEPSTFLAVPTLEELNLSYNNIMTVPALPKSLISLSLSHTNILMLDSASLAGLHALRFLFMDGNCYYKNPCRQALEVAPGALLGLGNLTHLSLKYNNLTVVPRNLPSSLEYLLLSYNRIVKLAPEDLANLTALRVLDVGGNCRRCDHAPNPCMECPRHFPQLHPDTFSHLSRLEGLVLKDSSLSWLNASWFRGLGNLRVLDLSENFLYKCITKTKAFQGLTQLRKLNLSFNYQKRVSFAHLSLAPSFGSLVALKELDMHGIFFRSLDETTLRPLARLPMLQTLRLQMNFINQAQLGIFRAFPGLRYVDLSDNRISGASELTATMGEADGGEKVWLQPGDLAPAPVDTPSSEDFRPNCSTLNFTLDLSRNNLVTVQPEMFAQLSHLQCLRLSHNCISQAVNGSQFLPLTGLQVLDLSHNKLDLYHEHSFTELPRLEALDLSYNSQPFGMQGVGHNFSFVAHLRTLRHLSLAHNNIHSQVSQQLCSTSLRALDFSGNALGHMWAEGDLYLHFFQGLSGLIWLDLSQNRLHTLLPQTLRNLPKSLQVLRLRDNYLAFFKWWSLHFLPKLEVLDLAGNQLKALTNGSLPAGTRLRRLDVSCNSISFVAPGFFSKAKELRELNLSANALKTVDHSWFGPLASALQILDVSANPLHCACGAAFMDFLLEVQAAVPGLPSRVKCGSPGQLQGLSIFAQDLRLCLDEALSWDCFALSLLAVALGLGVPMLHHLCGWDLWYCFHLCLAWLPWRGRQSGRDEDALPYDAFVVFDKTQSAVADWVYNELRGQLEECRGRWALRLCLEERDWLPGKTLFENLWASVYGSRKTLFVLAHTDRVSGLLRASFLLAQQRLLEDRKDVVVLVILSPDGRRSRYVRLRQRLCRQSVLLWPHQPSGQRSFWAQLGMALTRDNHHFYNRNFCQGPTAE
Assay: TLR9 inhibition reporter assay (HEK-Blue cells, secreted embryonic alkaline phosphatase reporter)
Assay type: cell-based
Summary of the method: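 HEK-Blue cells expressing human TLR7, TLR8 or TLR9 with an NF-κB/AP-1-driven SEAP reporter were pretreated with compound (0.05 nM–50 μM final) for 30 min at room temperature. Agonists were gardiquimod 7.5 μM for TLR7, R848 15.9 μM for TLR8 and ODN2006 5 nM for TLR9. SEAP was read after 22 h at 37 °C, and inhibition was calculated relative to agonist-plus-DMSO and known-inhibitor controls.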

[1] = HEK-Blue cells overexpressing human TLR9, stimulated with ODN2006 5 nM, read-out: TLR 9 IC50
[2] = HEK-Blue cells overexpressing human TLR9, stimulated with ODN2006 5 nM, 22 hour incubation, reporter readout
[3] = HEK-Blue human TLR9 reporter cells

pIC50	pIC50 [1]	pIC50 [2]	pIC50 [3]	Compound
6.70	6.70	–	–	COc1ccc(-c2nc3c(C)cc(C4CCN(C5CC6CCC(C5)N6C5CCC5)CC4)cc3n2C)cc1OC (stereo not shown) [Example 147, 6-(1-(8-cyclobutyl-8-azabicyclo[3.2.1]octan-3-yl)piperidin-4-yl)-2-(3,4-dimethoxyphenyl)-1,4-dimethyl-1H-benzo[d]imidazole]
7.17	7.17	–	–	Cc1cc(C2CCN(C3CC4(C3)CN(CC3CC3)C4)CC2)cc2c1nc(-c1ccc(S(C)(=O)=O)cc1)n2C [Example 142, 6-(1-(2-(cyclopropylmethyl)-2-azaspiro[3.3]heptan-6-yl)piperidin-4-yl)-1,4-dimethyl-2-(4-(methylsulfonyl)phenyl)-1H-benzo[d]imidazole]
7.15	7.15	–	–	COc1ccc(-c2nc3c(C)cc(C4CCN(C5CC6CCC(C5)N6C5CCC5)CC4)cc3n2C)cc1OC (stereo not shown) [Example 146, 6-(1-(8-cyclobutyl-8-azabicyclo[3.2.1]octan-3-yl)piperidin-4-yl)-2-(3,4-dimethoxyphenyl)-1,4-dimethyl-1H-benzo[d]imidazole]
–	7.04	7.04	–	COc1ccc(-c2nc3c(C)cc(C4CCN(C5CCN(CC(C)C)CC5)CC4)cc3[nH]2)cc1Cl [Example 64, 2-(3-chloro-4-methoxyphenyl)-6-(1′-isobutyl-[1,4′-bipiperidin]-4-yl)-4-methyl-1H-benzo[d]imidazole]
6.28	6.28	–	–	COc1ccc(-c2nc3ccc(C4CCN(C5CCN(C6CC6)CC5)CC4)c(F)c3[nH]2)cc1OC [Example 175, 6-(1′-cyclopropyl-[1,4′-bipiperidin]-4-yl)-2-(3,4-dimethoxyphenyl)-7-fluoro-1H-benzo[d]imidazole]
–	7.31	7.31	–	COc1cc(-c2nc3c(C)cc(C4CCN(C5CCN(CC(C)C)CC5)CC4)cc3[nH]2)cn2ncnc12 [Example 61, 6-(6-(1′-isobutyl-[1,4′-bipiperidin]-4-yl)-4-methyl-1H-benzo[d]imidazol-2-yl)-8-methoxy-[1,2,4]triazolo[1,5-a]pyridine tris(2,2,2-trifluoroacetate)]
6.77	6.76	–	–	COc1ccc(-c2nc3c(C)cc(C4CCN(C5CC6CCC(C5)N6CC5CCC5)CC4)cc3n2C)cc1OC (single isomer, unassigned) [Example 151, 6-(1-(8-(cyclobutylmethyl)-8-azabicyclo[3.2.1]octan-3-yl)piperidin-4-yl)-2-(3,4-dimethoxyphenyl)-1,4-dimethyl-1H-benzo[d]imidazole]
–	7.11	–	7.11	CS(=O)(=O)c1ccc(-c2nc3c(F)cc(C4CCN(C5CCN(CC6CC6)CC5)CC4)cc3n2C2CC2)cc1 [Example 320, 1-cyclopropyl-6-(1′-(cyclopropylmethyl)-[1,4′-bipiperidin]-4-yl)-4-fluoro-2-(4-(methylsulfonyl)phenyl)-1H-benzo[d]imidazole]
6.54	6.54	–	–	Cc1cc(C2CCN(C3CC4(C3)CN(C3CCC3)C4)CC2)cc2c1nc(-c1ccc(S(C)(=O)=O)cc1)n2C [Example 140, 6-(1-(2-cyclobutyl-2-azaspiro[3.3]heptan-6-yl)piperidin-4-yl)-1,4-dimethyl-2-(4-(methylsulfonyl)phenyl)-1H-benzo[d]imidazole]
6.17	6.17	–	–	Cc1cc(-c2ccc(N3CCN(C4CCOCC4)CC3)cc2)cc2c1nc(-c1ccc(S(C)(=O)=O)cc1)n2C [Example 176, 1,4-dimethyl-2-(4-(methylsulfonyl)phenyl)-6-(4-(4-(tetrahydro-2H-pyran-4-yl)piperazin-1-yl)phenyl)-1H-benzo[d]imidazole]
–	5.96	5.96	–	Cc1c(C2CCN(C3CCN(C(C)C)CC3)CC2)ccc2nc(-c3ccc(S(C)(=O)=O)cc3)n(C)c12 [Example 119, 6-(1′-isopropyl-[1,4′-bipiperidin]-4-yl)-1,7-dimethyl-2-(4-(methylsulfonyl)phenyl)-1H-benzo[d]imidazole]
–	7.62	–	7.62	Cc1cc(C2CCN(C3CC4CCC(C3)N4C3CCC3)CC2)cc2[nH]c(-c3ccc(S(C)(=O)=O)c(F)c3)nc12 (stereo not shown) [Example 349, 6-(1-(8-cyclobutyl-8-azabicyclo[3.2.1]octan-3-yl)piperidin-4-yl)-2-(3-fluoro-4-(methylsulfonyl)phenyl)-4-methyl-1H-benzo[d]imidazole]
7.21	7.21	–	–	COc1ccc(-c2nc3c(C)cc(C4CCN(C5CC6CCC(C5)N6C(C)C)CC4)cc3n2C)cc1OC (stereo not shown) [Example 144, 2-(3,4-dimethoxyphenyl)-6-(1-(8-isopropyl-8-azabicyclo[3.2.1]octan-3-yl)piperidin-4-yl)-1,4-dimethyl-1H-benzo[d]imidazole]
–	7.16	7.16	–	Cc1cc(C2CCN(C3CCN(CC(C)C)CC3)CC2)cc2[nH]c(-c3ccc(S(C)(=O)=O)c(F)c3)nc12 [Example 66, 2-(3-fluoro-4-(methylsulfonyl)phenyl)-6-(1′-isobutyl-[1,4′-bipiperidin]-4-yl)-4-methyl-1H-benzo[d]imidazole]
–	6.59	6.59	–	Cc1cc(C2CCN(C3CCN(CC(C)C)CC3)CC2)cc2[nH]c(-c3cccc(OC(F)F)c3)nc12 [Example 76, 2-(3-(difluoromethoxy)phenyl)-6-(1′-isobutyl-[1,4′-bipiperidin]-4-yl)-4-methyl-1H-benzo[d]imidazole]
–	7.31	7.31	–	Cc1cc(C2CCN(C3CCN(CC(C)C)CC3)CC2)cc2[nH]c(-c3cnc4[nH]ccc4c3)nc12 [Example 81, 6-(1′-isobutyl-[1,4′-bipiperidin]-4-yl)-4-methyl-2-(1H-pyrrolo[2,3-b]pyridin-5-yl)-1H-benzo[d]imidazole]
–	7.43	7.43	–	Cc1cc(C2CCN(C3CCN(CC(C)C)CC3)CC2)cc2[nH]c(-c3ccc4cnccc4c3)nc12 [Example 74, 6-(6-(1′-isobutyl-[1,4′-bipiperidin]-4-yl)-4-methyl-1H-benzo[d]imidazol-2-yl)isoquinoline]
–	6.71	6.70	–	Cc1cc(C2CCN(C3CCN(CC(C)C)CC3)CC2)cc2[nH]c(-c3ccc(OC(F)(F)F)cc3)nc12 [Example 63, 6-(1′-isobutyl-[1,4′-bipiperidin]-4-yl)-4-methyl-2-(4-(trifluoromethoxy)phenyl)-1H-benzo[d]imidazole]
–	7.36	–	7.36	Cc1cc(C2CCN(C3CC4CCC(C3)N4C3CC3)CC2)cc2[nH]c(-c3ccc(S(C)(=O)=O)c(F)c3)nc12 (stereo not shown) [Example 347, 6-(1-(8-cyclopropyl-8-azabicyclo[3.2.1]octan-3-yl)piperidin-4-yl)-2-(3-fluoro-4-(methylsulfonyl)phenyl)-4-methyl-1H-benzo[d]imidazole]
–	5.92	5.92	–	Cc1cc(-c2ccc(OC3CCN(C(C)C)CC3)cc2)cc2c1nc(-c1ccc(S(C)(=O)=O)cc1)n2C [Example 416, 6-(4-((1-isopropylpiperidin-4-yl)oxy)phenyl)-1,4-dimethyl-2-(4-(methylsulfonyl)phenyl)-1H-benzo[d]imidazole]
–	4.39	7.39	–	CN(C)C1CCN(Cc2ccc(-c3ccc4nc(-c5cccc(S(C)(=O)=O)c5)n(C)c4c3)cc2)CC1 [Example 384, N,N-dimethyl-1-(4-(1-methyl-2-(3-(methylsulfonyl)phenyl)-1H-benzo[d]imidazol-6-yl)benzyl)piperidin-4-amine]
6.57	6.57	–	–	COc1ccc(-c2nc3c(F)cc(C4CCN(C5CCN(C6CC6)CC5)CC4)cc3[nH]2)cc1OC [Example 128, 6-(1′-cyclopropyl-[1,4′-bipiperidin]-4-yl)-2-(3,4-dimethoxyphenyl)-4-fluoro-1H-benzo[d]imidazole]
–	6.35	6.35	–	Cc1cc(-c2ccc(CCN3CCC(C)(O)CC3)cc2)cc2c1nc(-c1ccc(S(C)(=O)=O)cc1)n2C [Example 366, 1-(4-(1,4-dimethyl-2-(4-(methylsulfonyl)phenyl)-1H-benzo[d]imidazol-6-yl)phenethyl)-4-methylpiperidin-4-ol]
